Columns and labels:
HRV-14 = assay: Antirhinoviral HI-HeLa Cell Culture Assay (cell protection, XTT), HRV-14; assay type: cell-based, human rhinovirus; conditions: for TI: CC50/EC50, HRV serotype-14, 2880 min; for EC50: Rhinovirus B, HRV14, 48 h, HRV serotype-14 infected HI-HeLa cells, XTT, two days
Protocol: In the Cell Protection Assay, the ability of compounds to protect cells against HRV infection was measured by the XTT dye reduction method. This method is described in O. S. Weislow, R. Kiser, D. L. Fine, J. Bader, R. H. Shoemaker, and M. R. Boyd, J. Natl. Cancer Inst. 1989, 81, 577-586, which document is entirely incorporated herein by reference.
(§1) HI-HeLa cells were infected with HRV-14 (unless otherwise noted) at a multiplicity of infection (m.o.i.) of 0.13 (virus particles/cell) or mock-infected with medium only. Infected or mock-infected cells were resuspended at 8×10^5 cells per mL and incubated with appropriate concentrations of compounds of formulas I and II. Two days later, XTT/PMS was added to test plates, and the amount of formazan produced was quantified spectrophotometrically at 450/650 nm. The EC50 was calculated as the concentration of compound that increased the percentage of formazan production in compound-treated, virus-infected cells to 50% of that produced by compound-free mock-infected cells. The 50% cytotoxic dose (CC50) was calculated as the concentration of compound that decreased the percentage of formazan produced in compound-treated, mock-infected cells to 50% of that produced in compound-free, mock-infected cells. The therapeutic index (TI) was calculated by dividing the CC50 by the EC50.
(§2) All strains of human rhinovims (HRV) for use in this assay were purchased from American Type Culture Collection (ATCC), except for HRV serotype-14, which was produced from the infectious cDNA clone, constructed and supplied to us by Dr. Roland Rueckert at the Institute for Molecular Virology, University of Wisconsin, Madison, Wis. HRV stocks were propagated, and antiviral assays were performed in HI-HeLa (ATCC). Cells were grown in Minimal Essential Medium, available from Life Technologies, with 10% fetal bovine serum.
The compounds were tested against control compounds WIN 51711, WIN 52084, and WIN 54954, all obtained from Sterling-Winthrop Pharmaceuticals, and control compound Pirodavir, obtained from Janssen Pharmaceuticals. Antiviral data obtained for the test compounds are shown in Table 2 where all data are for HRV serotype-14 unless otherwise noted in parentheses.

in vitro = assay type: cell-based; conditions: human, hi-hela cells
Protocol: as §1, §2

[1] = target: T1, Rhinovirus 3C protease (RVP) serotype-14 (Human rhinovirus 14, UniProt P03303); assay: Inhibition of Rhinovirus Protease, serotype 14 (FRET assay); assay type: biochemical; conditions: for kinact/KI: read-out: kobs/I; for Ki: RVP serotype-14, 10 minute preincubation with 50 nM RVP prior to addition of substrate, read-out: INHIB (Ki)
T1 construct: Recombinant Rhinovirus 3C proteases from serotypes 14, 16, 2 or 89 were prepared; made in house
Protocol: Stock solutions (50 mM, in DMSO) of various compounds were prepared; dilutions were in the same solvent. Recombinant Rhinovirus 3C proteases from serotypes 14, 16, 2 or 89 were prepared by the following standard chromatographic procedures: (1) ion exchange using Q Sepharose Fast Flow from Pharmacia; (2) affinity chromatography using Affi-Gel Blue from Biorad; and (3) sizing using Sephadex G-100 from Pharmacia. Assays contained 2% DMSO, 50 mM tris pH 7.6, 1 mM EDTA, a compound at the indicated concentrations, approximately 1 μM substrate, and 50-100 nM protease. For Ki determinations, the compound and the enzyme were preincubated for 10 minutes at 30° C. prior to addition of the substrate (substrate start). The kobs/I values were obtained from reactions initiated by addition of enzyme rather than substrate. RVP activity is measured in the fluorescence resonance energy transfer assay. The substrate was (N-terminal) DABCYL-(Gly-Arg-Ala-Val-Phe-Gln-Gly-Pro-Val-Gly)-EDANS. In the uncleaved peptide, the EDANS fluorescence was quenched by the proximal DABCYL moiety. When the peptide was cleaved, the quenching was relieved, and activity was measured as an increase in fluorescence signal.
In the above table, all data is for RVP serotype-14 unless otherwise noted in parentheses. All strains of human rhinovirus (HRV) were purchased from American Type Culture Collection (ATCC), except for serotype 14, which was produced from the infectious cDNA clone constructed and supplied to us by Dr. Roland Rueckert at the Institute for Molecular Virology, University of Wisconsin, Madison, Wis. The column designated INHIB represents the percent inhibition, with the concentration of the compound in μM indicated in parentheses, unless Ki was assigned as designated by (Ki), at 10 minute preincubation with 50 nM RVP prior to addition of substrate was used. The data in the column designated kobs/I was measured from progress curves in enzyme start experiments.

T1 sequence (P03303 1538-1719): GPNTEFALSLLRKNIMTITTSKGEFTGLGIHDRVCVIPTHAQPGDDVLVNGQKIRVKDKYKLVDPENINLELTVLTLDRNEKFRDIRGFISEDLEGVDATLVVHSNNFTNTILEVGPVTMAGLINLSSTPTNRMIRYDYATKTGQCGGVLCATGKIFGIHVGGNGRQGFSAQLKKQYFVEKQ

SMILES	TI (HRV-14)	EC50 (HRV-14)	CC50 at 48 h (in vitro)	kinact/KI [1]	Ki [1]
Cc1cc(CCCCCCCOc2ccc(C3=NCCO3)cc2)on1 [WIN 51711, reference compound]	> 77	0.78 µM	> 60 µM	–	–
Cc1cc(CCCCCCCOc2ccc(C3=N[C@@H](C)CO3)cc2)on1 [WIN 52084, reference compound]	> 143	0.07 µM	> 10 µM	–	–
CCOC(=O)/C(C)=C/[C@H](CCC(N)=O)NC(=O)[C@H](Cc1ccc(C)cc1)N(C)C(=O)[C@@H](NC(=O)SC1CCCC1)C(C)(C)C [Compound 49]	710	0.1 µM	71 µM	1910 M⁻¹ s⁻¹	–
CCOC(=O)/C(C)=C/[C@H](CCC(N)=O)NC(=O)[C@H](Cc1ccccc1)N(C)C(=O)[C@H](CC(C)C)NC(=O)SC1CCCCC1 [Compound 43]	16	3.5 µM	56.2 µM	2200 M⁻¹ s⁻¹	–
CCOC(=O)/C=C/[C@H](CCC(N)=O)NC(=O)[C@H](Cc1ccccc1)N(C)C(=O)[C@H](CCc1ccccc1)NC(=O)SCc1ccccc1 [Compound 9, Ethyl-3-(Benzylthiocarbonyl-L-hPhe-L-N-Me-Phe-L-Gln)-E-Propenoate]	225	0.25 µM	56.2 µM	57000 M⁻¹ s⁻¹	4.4 µM
CCSC(=O)N[C@@H](CC(C)C)C(=O)N(C)[C@@H](Cc1ccccc1)C(=O)N[C@H](/C=C/C(=O)N1CCc2ccccc21)CCC(N)=O [Compound 7, 1-(2',3'-Dihydroindolin-1-yl)-3-(Ethylthiocarbonyl-L-Leu-L-N-Me-Phe-L-Gln)-E-Propenone]	37	1.3 µM	47.9 µM	3820 M⁻¹ s⁻¹	–
CCOC(=O)/C=C/C(CCC(N)=O)NC(=O)[C@@H]1CCc2ncc(N(C(=O)SC3CCCC3)C(=O)SC3CCCC3)c(=O)n21 (stereo partly drawn) [Compound 50]	> 31	3.2 µM	> 100 µM	14000 M⁻¹ s⁻¹	–
CCOC(=O)/C=C/C(CCC(N)=O)NC(=O)[C@@H]1CCc2ncc(NC(=O)SC3CCCC3)c(=O)n21 (stereo partly drawn) [Compound 51]	> 8	12.6 µM	> 100 µM	43900 M⁻¹ s⁻¹	–
CCOC(=O)/C=C/[C@H](CCC(N)=O)NC(=O)[C@H](Cc1ccccc1)N(C)C(=O)[C@H](CC(C)C)NC(=O)SC1CCCCC1 [Compound 42]	111	0.45 µM	50.1 µM	15000 M⁻¹ s⁻¹	–
CCOC(=O)/C=C/[C@H](CCC(N)=O)NC(=O)Cn1c(-c2ccccc2)ncc(NC(=O)OCc2ccccc2)c1=O [Compound 30, Ethyl-3-([(5-CBZ-Amino)-2-Phenyl-6-Oxo-1,6-Dihydro-1-Pyrimidinyl]-L-Gln)-E-Propenoate]	25	7.2 µM	177 µM	163 M⁻¹ s⁻¹	55 µM
CCOC(=O)/C=C/[C@H](CCC(N)=O)NC(=O)[C@H](Cc1ccccc1)N(C)C(=O)[C@H](CC(C)C)NC(=O)SCC(C)C [Compound 44]	104	0.54 µM	56.2 µM	12300 M⁻¹ s⁻¹	–
CON(C)C(=O)/C=C/[C@H](CCC(N)=O)NC(=O)[C@@H]1[C@@H](c2ccccc2)CCN1C(=O)[C@H](CC(C)C)NC(=O)OCc1ccccc1 [Compound 22, N-Methoxy, N-Methyl-3-[CBZ-L-Leu L-(3R-Phenyl)-Pro-L-Gln]-E-Propenamide]	> 2	178 µM	> 320 µM	100 M⁻¹ s⁻¹	–
CCOC(=O)/C=C/[C@H](CCC(N)=O)NC(=O)[C@@H]1CCCN1C(=O)[C@H](CC(C)C)NC(=O)OCc1ccccc1 [Compound 19, Ethyl-3-(CBZ-L-Leu-L-Pro-L-Gln)-E-Propenoate]	> 6	50 µM	> 320 µM	1930 M⁻¹ s⁻¹	–
CC(C)C[C@H](NC(=O)SC1CCCC1)C(=O)N(C)[C@@H](Cc1ccccc1)C(=O)N[C@H](/C=C/C(=O)OCc1ccccc1)CCC(N)=O [Compound 56]	13	1.6 µM	20 µM	15400 M⁻¹ s⁻¹	–
CCOC(=O)/C=C/[C@H](CCC(N)=O)NC(=O)C1CN(S(=O)(=O)c2ccccc2)CCN1C(=O)[C@H](CC(C)C)NC(=O)OCc1ccccc1 (mixture of isomers) [Compound 29, Ethyl-3-[CBZ-L-Leu-DL-(4-Phenylsulfonyl)-Pipz-L-Gln]-E-Propenoate]	5	46 µM	251 µM	45 M⁻¹ s⁻¹	–
CCOC(=O)/C=C/[C@H](CCC(N)=O)NC(=O)[C@@H]1C[C@@H](OCc2ccccc2)CN1C(=O)[C@H](CC(C)C)NC(=O)OCc1ccccc1 [Compound 20, Ethyl-3-[CBZ-L-Leu-L-(4R-Benzyloxy)-Pro-L-Gln]-E-Propenoate]	10.3	5.4 µM	56 µM	3330 M⁻¹ s⁻¹	62 µM
CCOC(=O)/C=C/[C@H](CCC(N)=O)NC(=O)[C@H](Cc1ccc(C)cc1)N(C)C(=O)[C@@H](NC(=O)SC1CCCC1)C(C)(C)C [Compound 48]	> 20	0.5 µM	> 10 µM	14000 M⁻¹ s⁻¹	–
CCOC(=O)/C(C)=C/[C@H](CCC(N)=O)NC(=O)[C@H](Cc1ccccc1)N(C)C(=O)[C@H](CC(C)C)NC(=O)SC(C)C [Compound 39]	113	1.6 µM	180 µM	2330 M⁻¹ s⁻¹	–
CCOC(=O)/C=C/C(CCC(N)=O)NC(=O)[C@@H]1CCc2ncc(NC(=O)SCC)c(=O)n21 (stereo partly drawn) [Compound 52]	> 3	32 µM	> 100 µM	31100 M⁻¹ s⁻¹	–
CN(C(=O)[C@H](CCc1ccccc1)NC(=O)SCc1ccccc1)[C@@H](Cc1ccccc1)C(=O)N[C@H](/C=C1\CCOC1=O)CCC(N)=O [Compound 10, 2-(Bezylthiocarbonyl-L-hPhe-L-N-Me-Phe-L-Gln)-E-(α-Vinyl-γ-Butyrolactone)]	31	1.8 µM	56.2 µM	41800 M⁻¹ s⁻¹	2 µM
CCOC(=O)/C=C/[C@H](CCC(N)=O)NC(=O)Cn1c(-c2ccccc2)ncc(N)c1=O [Compound 31, Ethyl-3-{[(5-Amino)-2-Phenyl-6Oxo-1,6-Dihydro-1-Pyrimidinyl]-L-Gln}-Propenoate]	> 6	56 µM	> 320 µM	39 M⁻¹ s⁻¹	–
CCOC(=O)/C=C/[C@H](CCC(N)=O)NC(=O)[C@H](Cc1ccccc1)N(C)C(=O)[C@H](CC(C)C)NC(=O)SCC1CCCCC1 [Compound 40]	141	0.32 µM	45 µM	12100 M⁻¹ s⁻¹	–
CCOC(=O)/C=C/[C@H](CCC(N)=O)NC(=O)[C@H](Cc1ccccc1)N(C)C(=O)[C@H](CC(C)C)NC(=O)SC(C)C [Compound 38]	> 278	0.36 µM	> 100 µM	18200 M⁻¹ s⁻¹	–
CCOC(=O)/C=C/[C@H](CCC(N)=O)NC(=O)[C@H](Cc1ccccc1)N(C)C(=O)OCc1ccccc1 [Compound 1, Ethyl-3-(CBZ-L-N-Me-Phe-L-Gln)-E-Propenoate]	13	20 µM	251 µM	52 M⁻¹ s⁻¹	> 100 µM

— patent publication US5962487A, “Antipicornaviral compounds and methods for their use and preparation” (Agouron Pharmaceuticals, Inc., priority 1997, dated 1999)
